The results in this text go back to patent publication US10576064B2, “Spiro[3H-indole-3,2′-pyrrolidin]-2(1H)-one compounds and derivatives as MDM2-P53 inhibitors” (Boehringer Ingelheim International GmbH, priority 2014, dated 2020).

In the assay the target is p53-MDM2 interaction (GST-MDM2 protein aa 23-117 / biotinylated p53 wt peptide) (Homo sapiens (Human), UniProt Q00987). The assay can be described thus: MDM2-p53 Inhibition AlphaScreen. As to conditions: 20 nM GST-MDM2 (aa 23-117), 20 nM biotinylated p53 wt peptide. In kind it is biochemical. From the text: MDM2-p53 Inhibition AlphaScreen
`O=C1NCC[C@H]2[C@@H]1[C@H](c1cccc(Cl)c1F)[C@]1(C(=O)Nc3cc(Cl)ccc31)N2CC1CC1` [Compound I-1] gave an IC50 of 0.086 µM.

As for `O=C1NCC[C@H]2[C@@H]1[C@H](c1cccc(Cl)c1F)[C@]1(C(=O)Nc3cc(Cl)ccc31)N2CC1CC1` [Compound I-2], the IC50 came out at 0.112 µM.

Regarding `O=C1NCC[C@H]2[C@@H]1[C@H](c1cccc(Cl)c1)[C@]1(C(=O)Nc3cc(Cl)ccc31)N2CC1CC1` [Compound I-3], inhibition was half-maximal at 0.263 µM (IC50).

`CCOc1cccc(CN2[C@H]3CCNC(=O)[C@H]3[C@H](c3cccc(Cl)c3F)[C@]23C(=O)Nc2cc(Cl)ccc23)c1` [Compound I-5]: inhibition was half-maximal at 0.017 µM (IC50). On to `CCOc1cccc(CN2[C@H]3CCNC(=O)[C@H]3[C@H](c3cccc(Cl)c3)[C@]23C(=O)Nc2cc(Cl)ccc23)c1` [Compound I-7], for which 0.03 µM corresponded to half-maximal inhibition (IC50). The figure for `CCOc1cccc(CN2[C@H]3CCNC(=O)[C@H]3[C@H](c3cccc(Cl)c3F)[C@]23C(=O)Nc2nc(Cl)ccc23)c1` [Compound I-9] is 0.03 µM; for `O=C1NCC[C@H]2[C@@H]1[C@H](c1cc(Br)cc(Cl)c1F)[C@]1(C(=O)Nc3cc(Cl)ccc31)N2CC1CC1` [Compound I-11] it is 0.462 µM. For the compound `CC1CC1CN1[C@H]2CCNC(=O)[C@H]2[C@H](c2cccc(Cl)c2F)[C@]12C(=O)Nc1cc(Cl)ccc12` (stereo partly drawn) [Compound I-13], inhibition was half-maximal at 0.272 µM (IC50). This IC50 is about 1.7-fold lower than that of the compound before. Regarding `CC(C)(C)CN1[C@H]2CCNC(=O)[C@H]2[C@H](c2cccc(Cl)c2F)[C@]12C(=O)Nc1cc(Cl)ccc12` [Compound I-15], the half-inhibitory concentration (IC50) was 0.152 µM. The compound `O=C1NCC[C@H]2[C@@H]1[C@H](c1cccc(Cl)c1F)[C@]1(C(=O)Nc3cc(Cl)c(F)cc31)N2CC1CC1` [Compound I-17] came in with an IC50 of 0.324 µM. For `O=C1NCC[C@H]2[C@@H]1[C@H](c1cccc(Cl)c1F)[C@]1(C(=O)Nc3cc(Cl)ccc31)N2CC1CCC1` [Compound I-19], the IC50 came to 0.24 µM. Regarding `O=C1NCC[C@H]2[C@@H]1[C@H](c1cccc(Cl)c1F)[C@]1(C(=O)Nc3cc(Br)ccc31)N2CC1CC1` [Compound I-21], half-maximal inhibition (IC50) was put at 0.064 µM. `Cc1ccc2c(c1)NC(=O)[C@]21[C@@H](c2cccc(Cl)c2F)[C@@H]2C(=O)NCC[C@@H]2N1CC1CC1` [Compound I-23] had an IC50 of 0.29 µM. The compound `O=C1NCC[C@H]2[C@@H]1[C@H](c1cccc(Cl)c1F)[C@]1(C(=O)Nc3cc(I)ccc31)N2CC1CC1` [Compound I-25] displayed an IC50 of 0.324 µM. The IC50 values of the last two compounds are within 1.5-fold of each other. Regarding `O=C1OCC[C@H]2[C@@H]1[C@H](c1cccc(Cl)c1F)[C@]1(C(=O)Nc3cc(Cl)ccc31)N2CC1CC1` [Compound I-37], the half-inhibitory concentration (IC50) is 0.292 µM. The compound `O=C1NC[C@H]2[C@@H]1[C@H](c1cccc(Cl)c1F)[C@]1(C(=O)Nc3cc(Cl)ccc31)N2CC1CC1` [Compound I-39] yielded a 50% inhibitory concentration (IC50) of 0.032 µM. In turn, `O=C1NC[C@H]2[C@@H]1[C@H](c1cccc(Cl)c1F)[C@]1(C(=O)Nc3cc(Cl)ccc31)N2CC1CC1` [Compound I-40] showed an IC50 of 0.033 µM. For `CCOc1cccc(CN2[C@H]3CNC(=O)[C@H]3[C@H](c3cccc(Cl)c3F)[C@]23C(=O)Nc2cc(Cl)ccc23)c1` [Compound I-43], the half-inhibitory concentration (IC50) came out at 0.008 µM.

For the compound `COC(=O)c1ccc(N2CC[C@H]3[C@@H](C2=O)[C@H](c2cccc(Cl)c2F)[C@]2(C(=O)Nc4cc(Cl)ccc42)N3CC2CC2)cc1` [Compound I-63], the IC50 was 0.103 µM. This IC50 is about 13-fold higher than that of the compound before. Regarding `COC(=O)c1ccc(N2CC[C@H]3[C@@H](C2=O)[C@H](c2cccc(Cl)c2F)[C@]2(C(=O)Nc4cc(Cl)ccc42)N3CC2CC2C)cc1` (stereo partly drawn) [Compound I-69], the 50% inhibitory concentration (IC50) turned out to be 0.447 µM. This IC50 lies about 4.3-fold higher than the previous one. The figure for `CCOc1cccc(CN2[C@H]3CCN(c4ccc(C(=O)OC)cc4)C(=O)[C@H]3[C@H](c3cccc(Cl)c3F)[C@]23C(=O)Nc2cc(Cl)ccc23)c1` [Compound I-71] is 0.068 µM.

The compound `O=C1[C@@H]2[C@H](CCN1c1ccc(-c3nnn[nH]3)cc1)N(CC1CC1)[C@@]1(C(=O)Nc3cc(Cl)ccc31)[C@H]2c1cccc(Cl)c1F` [Compound I-72] had a 50% inhibitory concentration (IC50) of 0.017 µM. Compound `CC(C)(C)CN1[C@H]2CCN(c3ccc(S(C)(=O)=O)cc3)C(=O)[C@H]2[C@H](c2cccc(Cl)c2F)[C@]12C(=O)Nc1cc(Cl)ccc12` [Compound I-74] gave a concentration for half-maximal inhibition (IC50) of 0.342 µM. On to `CS(=O)(=O)c1ccc(N2CC[C@H]3[C@@H](C2=O)[C@H](c2cccc(Cl)c2F)[C@]2(C(=O)Nc4cc(Cl)ccc42)N3CC2CC2)cc1` [Compound I-76], for which the IC50 was found to be 0.042 µM. With `CC1CC1CN1[C@H]2CCN(c3ccc(S(C)(=O)=O)cc3)C(=O)[C@H]2[C@H](c2cccc(Cl)c2F)[C@]12C(=O)Nc1cc(Cl)ccc12` (stereo partly drawn) [Compound I-78], the IC50 turned out to be 0.12 µM. This IC50 is about 2.9-fold higher than that of the compound before. In the case of `CNS(=O)(=O)c1ccc(N2CC[C@H]3[C@@H](C2=O)[C@H](c2cccc(Cl)c2F)[C@]2(C(=O)Nc4cc(Cl)ccc42)N3CC2CC2)cc1` [Compound I-80], the midpoint of inhibition, the IC50, lay at 0.093 µM. The IC50 values of the last two compounds are within 1.5-fold of each other. Compound `COC(=O)c1ccc(N2CC[C@H]3[C@@H](C2=O)[C@H](c2cccc(Cl)c2F)[C@]2(C(=O)Nc4cc(Cl)ccc42)N3CC2CC2C)c(OC)c1` (stereo partly drawn) [Compound I-82] showed a half-maximal inhibitory concentration (IC50) of 1.02 µM.

Regarding `COC(=O)c1ccc(N2CC[C@H]3[C@@H](C2=O)[C@H](c2cccc(Cl)c2F)[C@]2(C(=O)Nc4cc(Cl)ccc42)N3CC2CC2C)c(F)c1` (stereo partly drawn) [Compound I-84], 1.18 µM corresponded to half-maximal inhibition (IC50). As for `N#Cc1ccc(N2CC[C@H]3[C@@H](C2=O)[C@H](c2cccc(Cl)c2F)[C@]2(C(=O)Nc4cc(Cl)ccc42)N3CC2CC2)cc1` [Compound I-86], the half-inhibitory concentration (IC50) stood at 0.159 µM. Compared with the last compound, the IC50 is about 7.4-fold lower. `COCc1cc(N2CC[C@H]3[C@@H](C2=O)[C@H](c2cccc(Cl)c2F)[C@]2(C(=O)Nc4cc(Cl)ccc42)N3CC2CC2)ccn1` [Compound I-90] yielded an IC50 of 0.124 µM.

`O=C1[C@@H]2[C@H](CCN1c1ccncc1)N(CC1CC1)[C@@]1(C(=O)Nc3cc(Cl)ccc31)[C@H]2c1cccc(Cl)c1F` [Compound I-92]: the IC50 was determined as 0.193 µM. The figure for `CCOc1cccc(CN2[C@@H]3CCN(c4ccc(C(=O)OC)cc4)C(=O)[C@@H]3[C@@H](c3cccc(Cl)c3F)[C@@]23C(=O)Nc2cc(Cl)ccc23)c1` [Compound I-112] is 3.29 µM; for `COC(=O)c1ccc(N2C[C@H]3[C@@H](C2=O)[C@H](c2cccc(Cl)c2F)[C@]2(C(=O)Nc4cc(Cl)ccc42)N3CC2CC2)cc1` [Compound I-123] it is 0.038 µM; for `COC(=O)c1ccc(N2C[C@H]3[C@@H](C2=O)[C@H](c2cccc(Cl)c2F)[C@]2(C(=O)Nc4cc(Cl)ccc42)N3CC2CC2)c(OC)c1` [Compound I-125] it is 0.347 µM. Compound `O=C(O)c1ccc(N2CC[C@H]3[C@@H](C2=O)[C@H](c2cccc(Cl)c2F)[C@]2(C(=O)Nc4cc(Cl)ccc42)N3CC2CC2)cc1` [Compound I-170] showed an IC50 of 0.011 µM. This IC50 is about 32-fold lower than that of the compound before.

Compound `O=C(O)c1ccc(N2CC[C@H]3[C@@H](C2=O)[C@H](c2cccc(Cl)c2F)[C@]2(C(=O)Nc4cc(Cl)ccc42)N3CC2CC2)cc1` [Compound I-171] gave a concentration for half-maximal inhibition (IC50) of 0.004 µM. `O=C(O)c1ccc(N2CC[C@@H]3[C@H](C2=O)[C@@H](c2cccc(Cl)c2F)[C@@]2(C(=O)Nc4cc(Cl)ccc42)N3CC2CC2)cc1` [Compound I-172]: half-maximal inhibition (IC50) was put at 0.302 µM. `O=C(O)c1ccc(N2CC[C@H]3[C@@H](C2=O)[C@H](c2cccc(Cl)c2F)[C@]2(C(=O)Nc4cc(Cl)c(F)cc42)N3CC2CC2)cc1` [Compound I-173]: the IC50 was determined as 0.029 µM. Take `O=C(O)c1cccc(N2CC[C@H]3[C@@H](C2=O)[C@H](c2cccc(Cl)c2F)[C@]2(C(=O)Nc4cc(Cl)ccc42)N3CC2CC2)c1` [Compound I-175]: the IC50 turned out to be 2.13 µM. `O=C(O)c1ccc(N2CC[C@H]3[C@@H](C2=O)[C@H](c2cccc(Cl)c2)[C@]2(C(=O)Nc4cc(Cl)ccc42)N3CC2CC2)cc1` [Compound I-177] returned a 50% inhibitory concentration (IC50) of 0.016 µM.

As to `COc1cc(C(=O)O)ccc1N1CC[C@H]2[C@@H](C1=O)[C@H](c1cccc(Cl)c1F)[C@]1(C(=O)Nc3cc(Cl)ccc31)N2CC1CC1` [Compound I-179], half-maximal inhibition (IC50) required 0.071 µM. In turn, `COc1cc(C(=O)O)ccc1N1CC[C@H]2[C@@H](C1=O)[C@H](c1cccc(Cl)c1)[C@]1(C(=O)Nc3cc(Cl)ccc31)N2CC1CC1` [Compound I-181] showed an IC50 of 0.092 µM. In turn, `O=C(O)c1ccc(N2CC[C@H]3[C@@H](C2=O)[C@H](c2cccc(Cl)c2F)[C@]2(C(=O)Nc4cc(Cl)ccc42)N3CC2CC2)cn1` [Compound I-183] registered an IC50 of 0.01 µM. This IC50 lies about 9.2-fold lower than the previous one. For `CCOc1cccc(CN2[C@H]3CCN(c4ccc(C(=O)O)cc4)C(=O)[C@H]3[C@H](c3cccc(Cl)c3F)[C@]23C(=O)Nc2cc(Cl)ccc23)c1` [Compound I-185], inhibition was half-maximal at 0.003 µM (IC50). The compound `CCOc1cccc(CN2[C@H]3CCN(c4ccc(C(=O)O)cc4)C(=O)[C@H]3[C@H](c3cccc(Cl)c3F)[C@]23C(=O)Nc2cc(Cl)ccc23)c1` [Compound I-186] returned an IC50 of 0.002 µM. Compound `CCOc1cccc(CN2[C@H]3CCN(c4ccc(C(=O)O)cc4[N+](=O)[O-])C(=O)[C@H]3[C@H](c3cccc(Cl)c3F)[C@]23C(=O)Nc2cc(Cl)ccc23)c1` [Compound I-188] showed a half-inhibitory concentration (IC50) of 0.016 µM. On to `CC1CC1CN1[C@H]2CCN(c3ccc(C(=O)O)cc3F)C(=O)[C@H]2[C@H](c2cccc(Cl)c2F)[C@]12C(=O)Nc1cc(Cl)ccc12` (stereo partly drawn) [Compound I-190], for which the half-inhibitory concentration (IC50) was 0.045 µM. As to `O=C(O)c1ccc(N2CC[C@H]3[C@@H](C2=O)[C@H](c2cccc(Cl)c2F)[C@]2(C(=O)Nc4cc(Cl)ccc42)N3CC2CC2)c([N+](=O)[O-])c1` [Compound I-192], the half-inhibitory concentration (IC50) stood at 0.04 µM. The same measure for `COc1cc(C(=O)O)ccc1N1CC[C@H]2[C@@H](C1=O)[C@H](c1cccc(Cl)c1F)[C@]1(C(=O)Nc3cc(Cl)ccc31)N2CC1CC1C` (stereo partly drawn) [Compound I-194]: 0.114 µM; for `CC1CC1CN1[C@H]2CCN(c3ccc(C(=O)O)cc3)C(=O)[C@H]2[C@H](c2cccc(Cl)c2F)[C@]12C(=O)Nc1cc(Cl)ccc12` (stereo partly drawn) [Compound I-196]: 0.02 µM. The same measure for `O=C(O)c1ccc(N2CC[C@H]3[C@@H](C2=O)[C@H](c2cccc(Cl)c2F)[C@]2(C(=O)Nc4cc(Cl)ccc42)N3CC2CCC2)cc1` [Compound I-198]: 0.027 µM.
